# Measured values as given in patent US20260062422A1 (Halda Therapeutics OpCo, Inc., priority 2022, published 2026).
# Tests used:
# [1] = tested on: T-Rex 293 cell line SC3 cells having increased expression of androgen receptor protein due to exposure to doxycycline; test: Cellular growth inhibition, T-Rex 293 SC3 cells with doxycycline (androgen receptor induced), CellTiter-Glo; assay type: cell-based; details: 72 h, T-Rex 293 SC3 cells with 10 ng/mL doxycycline (increased androgen receptor expression)
# Method in brief: (§1)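 SC3 is a T-Rex 293 clone stably transfected with wild-type androgen receptor in pcDNA4/TO, inducible by 10 ng/mL doxycycline. Cells were grown in phenol red-free DMEM with 10% charcoal-dextran FBS, with or without doxycycline, dosed 24 h after seeding (0.5% DMSO) for 72 h. Viability was read by CellTiter-Glo 2.0 luminescence and GI50 obtained from four-parameter fits.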
# VCaP cells = test: Cellular growth inhibition assay for VCaP cells, CellTiter-Glo; assay type: cell-based, human; details: Homo sapiens, VCaP, 72 h, 72 hours treatment, CellTiter-Glo 2.0
# Method in brief: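 GI50 values come from four-parameter curve fits of luminescence data normalized to a zero baseline. Compound, in medium with 0.5% DMSO, was added one day after plating and left for 72 h before CellTiter-Glo 2.0 addition.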
# [2] = tested on: T-Rex 293 cell line SC3 cells lacking increased expression of androgen receptor protein; test: Cellular growth inhibition, T-Rex 293 SC3 cells without doxycycline, CellTiter-Glo; assay type: cell-based; details: 72 h, T-Rex 293 SC3 cells not exposed to doxycycline, CellTiter-Glo 2.0
# Method in brief: as §1
# T47D cells = test: Cellular growth inhibition assay for T47D cells, CellTiter-Glo; assay type: cell-based, human; details: Homo sapiens, T47D, 72 h, 72 hours treatment, CellTiter-Glo 2.0 cell viability
# Method in brief: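 Cells are plated at 3000/well and allowed 24 h before treatment. Test compound in medium containing 0.5% DMSO is then added, with DMSO-only wells as negative control, and plates are incubated 72 h at 37 °C. ATP luminescence (CellTiter-Glo 2.0) is then fitted to four parameters to derive GI50.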
GI50 (VCaP cells) [nM],GI50 (T47D cells) [nM],Structure (SMILES),GI50 [1] [nM],GI50 [2] [nM]
> 3000,500 to 1500,Cc1sc2c(c1C)C(c1ccc(OC3CN(CC4CCN(c5ncc(C(=O)N[C@H]6C(C)(C)[C@H](Oc7ccc(C#N)c(Cl)c7)C6(C)C)cn5)CC4)C3)cc1)=N[C@@H](Cc1ncco1)c1nnc(C)n1-2 [Compound I-168],< 500,> 3000
< 500,< 500,Cc1sc2c(c1C)C(c1ccc(OC3CC4(CCN(c5ccc(C(=O)N[C@H]6C(C)(C)[C@H](Oc7ccc(C#N)c(Cl)c7)C6(C)C)cn5)CC4)C3)cc1)=N[C@@H](Cc1ncco1)c1nnc(C)n1-2 [Compound I-170],< 500,> 3000
< 500,> 3000,Cc1sc2c(c1C)C(c1ccc(O[C@H]3CC[C@]4(CCCN(c5ncc(C(=O)N[C@H]6C(C)(C)[C@H](Oc7ccc(C#N)c(Cl)c7)C6(C)C)cn5)C4)CC3)cc1)=N[C@@H](Cc1ncco1)c1nnc(C)n1-2 [Compound I-171],< 500,< 500
< 500,< 500,Cc1sc2c(c1C)C(c1ccc(O[C@H]3CCC4(CCN(c5ncc(C(=O)N[C@H]6C(C)(C)[C@H](Oc7ccc(C#N)c(Cl)c7)C6(C)C)cn5)CC4)C3)cc1)=N[C@@H](Cc1ncco1)c1nnc(C)n1-2 [Compound I-173],< 500,> 3000
500 to 1500,< 500,Cc1sc2c(c1C)C(c1ccc(O[C@@H]3CCC4(CCN(c5ncc(C(=O)N[C@H]6C(C)(C)[C@H](Oc7ccc(C#N)c(Cl)c7)C6(C)C)cn5)CC4)C3)cc1)=N[C@@H](Cc1ncco1)c1nnc(C)n1-2 [Compound I-174],< 500,< 500
< 500,500 to 1500,Cc1sc2c(c1C)C(c1ccc(O[C@H]3CC[C@]4(CCN(c5ncc(C(=O)N[C@H]6C(C)(C)[C@H](Oc7ccc(C#N)c(Cl)c7)C6(C)C)cn5)C4)C3)cc1)=N[C@@H](Cc1ncco1)c1nnc(C)n1-2 [Compound I-175],< 500,< 500
< 500,< 500,Cc1sc2c(c1C)C(c1ccc(O[C@H]3CC[C@@]4(CCN(c5ncc(C(=O)N[C@H]6C(C)(C)[C@H](Oc7ccc(C#N)c(Cl)c7)C6(C)C)cn5)C4)C3)cc1)=N[C@@H](Cc1ncco1)c1nnc(C)n1-2 [Compound I-176],< 500,500 to 1500
< 500,< 500,Cc1sc2c(c1C)C(c1ccc(O[C@@H]3CCC4(CCN(c5ncc(C(=O)N[C@H]6C(C)(C)[C@H](Oc7ccc(C#N)c(Cl)c7)C6(C)C)cn5)C4)C3)cc1)=N[C@@H](Cc1ncco1)c1nnc(C)n1-2 (stereo partly shown) [Compound I-177],< 500,< 500
< 500,< 500,Cc1sc2c(c1C)C(c1ccc(O[C@H]3CC[C@]4(CCN(c5ncc(C(=O)N[C@H]6C(C)(C)[C@H](Oc7ccc(C#N)c(Cl)c7)C6(C)C)cn5)C4)CC3)cc1)=N[C@@H](Cc1ncco1)c1nnc(C)n1-2 [Compound I-178],< 500,< 500
< 500,500 to 1500,Cc1sc2c(c1C)C(c1ccc(O[C@H]3CC[C@@]4(CCN(c5ncc(C(=O)N[C@H]6C(C)(C)[C@H](Oc7ccc(C#N)c(Cl)c7)C6(C)C)cn5)C4)CC3)cc1)=N[C@@H](Cc1ncco1)c1nnc(C)n1-2 [Compound I-179],< 500,< 500
< 500,< 500,Cc1sc2c(c1C)C(c1ccc(O[C@H]3CCC4(C3)CN(c3ncc(C(=O)N[C@H]5C(C)(C)[C@H](Oc6ccc(C#N)c(Cl)c6)C5(C)C)cn3)C4)cc1)=N[C@@H](Cc1ncco1)c1nnc(C)n1-2 [Compound I-180],< 500,< 500
< 500,< 500,Cc1sc2c(c1C)C(c1ccc(O[C@H]3COC4(C3)CN(c3ncc(C(=O)N[C@H]5C(C)(C)[C@H](Oc6ccc(C#N)c(Cl)c6)C5(C)C)cn3)C4)cc1)=N[C@@H](Cc1ncco1)c1nnc(C)n1-2 [Compound I-181],< 500,< 500
< 500,< 500,Cc1sc2c(c1C)C(c1ccc(O[C@@H]3COC4(C3)CN(c3ncc(C(=O)N[C@H]5C(C)(C)[C@H](Oc6ccc(C#N)c(Cl)c6)C5(C)C)cn3)C4)cc1)=N[C@@H](Cc1ncco1)c1nnc(C)n1-2 [Compound I-182],< 500,< 500
< 500,500 to 1500,Cc1sc2c(c1C)C(c1ccc(O[C@H]3CCOC34CN(c3ncc(C(=O)N[C@H]5C(C)(C)[C@H](Oc6ccc(C#N)c(Cl)c6)C5(C)C)cn3)C4)cc1)=N[C@@H](Cc1ncco1)c1nnc(C)n1-2 [Compound I-183],< 500,< 500
< 500,< 500,Cc1sc2c(c1C)C(c1ccc(O[C@@H]3CCOC34CN(c3ncc(C(=O)N[C@H]5C(C)(C)[C@H](Oc6ccc(C#N)c(Cl)c6)C5(C)C)cn3)C4)cc1)=N[C@@H](Cc1ncco1)c1nnc(C)n1-2 [Compound I-184],< 500,< 500
< 500,< 500,Cc1sc2c(c1C)C(c1ccc(O[C@@H]3COC4(CCN(c5ncc(C(=O)N[C@H]6C(C)(C)[C@H](Oc7ccc(C#N)c(Cl)c7)C6(C)C)cn5)C4)C3)cc1)=N[C@@H](Cc1ncco1)c1nnc(C)n1-2 (stereo partly shown) [Compound I-185],< 500,< 500
< 500,500 to 1500,Cc1sc2c(c1C)C(c1ccc(O[C@H]3CO[C@@]4(CCCN(c5ncc(C(=O)N[C@H]6C(C)(C)[C@H](Oc7ccc(C#N)c(Cl)c7)C6(C)C)cn5)C4)C3)cc1)=N[C@@H](Cc1ncco1)c1nnc(C)n1-2 [Compound I-186],< 500,< 500
< 500,< 500,Cc1sc2c(c1C)C(c1ccc(O[C@@H]3CO[C@]4(CCCN(c5ncc(C(=O)N[C@H]6C(C)(C)[C@H](Oc7ccc(C#N)c(Cl)c7)C6(C)C)cn5)C4)C3)cc1)=N[C@@H](Cc1ncco1)c1nnc(C)n1-2 [Compound I-187],< 500,< 500
< 500,< 500,Cc1sc2c(c1C)C(c1ccc(O[C@@H]3CO[C@@]4(CCCN(c5ncc(C(=O)N[C@H]6C(C)(C)[C@H](Oc7ccc(C#N)c(Cl)c7)C6(C)C)cn5)C4)C3)cc1)=N[C@@H](Cc1ncco1)c1nnc(C)n1-2 [Compound I-188],< 500,< 500
< 500,< 500,Cc1sc2c(c1C)C(c1ccc(OC3CC(CC4CCN(c5ncc(C(=O)N[C@H]6C(C)(C)[C@H](Oc7ccc(C#N)c(Cl)c7)C6(C)C)cn5)CC4)C3)cc1)=N[C@@H](Cc1ncco1)c1nnc(C)n1-2 (stereo partly shown) [Compound I-189],< 500,> 3000
< 500,< 500,Cc1sc2c(c1C)C(c1ccc(O[C@H]3C[C@H](OC4CCN(c5ncc(C(=O)N[C@H]6C(C)(C)[C@H](Oc7ccc(C#N)c(Cl)c7)C6(C)C)cn5)CC4)C3)cc1)=N[C@@H](Cc1ncco1)c1nnc(C)n1-2 [Compound I-190],< 500,> 3000
< 500,< 500,Cc1sc2c(c1C)C(c1ccc(O[C@@H]3CCC4(C3)CN(c3ncc(C(=O)N[C@H]5C(C)(C)[C@H](Oc6ccc(C#N)c(Cl)c6)C5(C)C)cn3)C4)cc1)=N[C@@H](Cc1ncco1)c1nnc(C)n1-2 [Compound I-191],< 500,< 500
